Measurements reported in paper PMC6136576, “Ubiquitin-Mimicking Peptides Transfer Differentiates by E1 and E2 Enzymes” (BioMed Research International, 2018).
Entries after “also recorded” stand apart in the source; their conditions may differ. Marks after values point to notes of the source that are not given here.

Columns and labels:
Ube1 = biological target: T1, Ube1 (Homo sapiens, UniProt P22314); assay: ATP-PPi exchange assay of Ube1 activation; format: biochemical; conditions: for Km / kcat / kcat/Km: ATP-PPi exchange catalyzed by Ube1, 0.05 uM Ube1, peptides 10-1000 uM, n=3; for Km: 50 mM Tris-Cl pH7.5, 10 mM MgCl2, 1 mM ATP, 1 mM [32P]pyrophosphate, room temperature; for Km / kcat: Michaelis-Menten fit; for kcat / kcat/Km: pH7.5, room temperature; for reactivity of free 7mer peptides with Ube1 (ATP-PPi exchange rate): free short peptides, Figure 1, n=3
T1 sequence (P22314 1-1058): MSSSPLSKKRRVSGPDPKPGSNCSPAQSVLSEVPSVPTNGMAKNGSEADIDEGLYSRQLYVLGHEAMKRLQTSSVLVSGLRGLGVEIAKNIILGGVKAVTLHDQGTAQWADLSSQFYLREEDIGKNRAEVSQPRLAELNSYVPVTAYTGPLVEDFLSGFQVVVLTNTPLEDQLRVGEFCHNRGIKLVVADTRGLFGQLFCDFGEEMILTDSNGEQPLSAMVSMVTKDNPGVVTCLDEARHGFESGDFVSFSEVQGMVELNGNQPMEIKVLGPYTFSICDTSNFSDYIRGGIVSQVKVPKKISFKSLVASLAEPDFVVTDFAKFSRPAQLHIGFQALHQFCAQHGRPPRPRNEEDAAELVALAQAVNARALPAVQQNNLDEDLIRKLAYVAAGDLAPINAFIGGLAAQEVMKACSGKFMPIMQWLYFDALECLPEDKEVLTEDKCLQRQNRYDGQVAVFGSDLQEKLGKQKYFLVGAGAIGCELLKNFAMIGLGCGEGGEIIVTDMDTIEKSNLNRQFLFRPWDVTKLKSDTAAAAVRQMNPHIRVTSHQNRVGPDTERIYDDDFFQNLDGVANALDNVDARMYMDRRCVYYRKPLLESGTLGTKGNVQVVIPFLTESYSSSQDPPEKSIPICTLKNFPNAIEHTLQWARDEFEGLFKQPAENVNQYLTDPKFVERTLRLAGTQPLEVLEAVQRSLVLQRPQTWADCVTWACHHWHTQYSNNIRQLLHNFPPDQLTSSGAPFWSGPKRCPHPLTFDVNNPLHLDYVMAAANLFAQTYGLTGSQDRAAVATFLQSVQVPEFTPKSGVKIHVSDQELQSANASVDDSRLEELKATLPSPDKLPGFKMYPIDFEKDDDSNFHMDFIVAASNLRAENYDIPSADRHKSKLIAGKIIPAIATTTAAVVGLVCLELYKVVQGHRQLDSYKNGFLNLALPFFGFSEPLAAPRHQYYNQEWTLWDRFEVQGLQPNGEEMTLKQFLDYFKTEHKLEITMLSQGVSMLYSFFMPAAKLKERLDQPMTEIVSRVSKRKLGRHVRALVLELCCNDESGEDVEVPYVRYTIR
Protocol: Initial velocity of Ube1-activated peptides either in the free state or on different frames was followed by the ATP-PPi exchange assay. 50 uL reactions were set up containing varying concentrations of peptides, 0.05 uM Ube1, 50 mM Tris-Cl, pH7.5, 10 mM MgCl2, and 1 mM ATP. The reactions were initiated by adding of 1 mM [^32P]pyrophosphate (4.6 Ci/mol). The reactions were incubated at room temperature and quenched at various time points by adding of 0.5 mL of a suspension of activated charcoal (1.6 % (w/v) charcoal, 0.1 M tetrasodium pyrophosphate, and 0.35 M perchloric acid) to each of the reactions. The charcoal was pelleted by centrifugation and each charcoal pellet was washed three times with 1 ml 2 % trichloroacetic acid. Finally the charcoal pellet was resuspended in 0.5 ml water and the suspension was added to 3.5 mL Ultima Gold LSC-cocktail (PerkinElmer). The radioactivity bound to charcoal was determined by liquid scintillation counting. To measure the kinetics of the peptides activation by Ube1, initial velocities of ATP-PPi exchange were determined with concentrations of peptides varying from 10 uM to 1000 uM. The kinetic data were fitted to the Michaelis-Menten equation with the data analysis software Origin.

E2 and E3 = conditions: cited from earlier work

Substance	Km (Ube1) [µM]	kcat (Ube1)	kcat/Km (Ube1)	reactivity of free 7mer peptides with Ube1 (ATP-PPi exchange rate) (Ube1)	transfer of free peptides to E2 and E3 (E2 and E3)
AGRMLGG [C7, heptamer peptide AGRMLGG from Ubiquitin-like protein fubi and ribosomal protein S30 precursor]	543 ± 122	5.54±1.37^c min^−1	1.01 x10^−2^c μM min^−1	displayed affinity with Ube1 with a similar level of efficiency as P3 and P4; also recorded: highest activity of the three peptides identified in this study	
ALKERGG [C3, heptamer peptide ALKERGG from Human splicing factor 3A subunit 1 isoform 1]				neither C8, containing Arg but only one Gly, nor C3, which possesses the C-terminal Gly-Gly but with a homologous replacement of Arg to Lys, showed any reactivity toward Ube1	
EPRLCGG [C1, heptamer peptide EPRLCGG from the motif of Human C1orf55]	651 ± 49.3	2.29±0.59^a min^−1	3.52 x10^−3^a μM min^−1	displayed affinity with Ube1 with a similar level of efficiency as P3 and P4	
IPRDRVG [C8, heptamer peptide IPRDRVG from Ubiquitin-fold modifier 1 (Homo sapiens)]				neither C8, containing Arg but only one Gly, nor C3, which possesses the C-terminal Gly-Gly but with a homologous replacement of Arg to Lys, showed any reactivity toward Ube1	
VLRLRGG [P1, reference compound]			5.24e-05 µM/min	could not be conjugated to Ube1	
VLRQLGG [C2, heptamer peptide VLRQLGG from Drosophila homologue of C1orf55]	611 ± 23.1	3.73±0.87^b min^−1	6.10 x10^−3^b μM min^−1	displayed affinity with Ube1 with a similar level of efficiency as P3 and P4	
VQRYWGG [P3, previously reported short peptide VQRYWGG, positive control, reference compound]	476 ± 163	6.68 ± 0.77 min⁻¹	0.014 µM/min	showed significant activity with Ube1	could be transferred to E2 and E3
VYRFYGG [P4, previously reported short peptide VYRFYGG, positive control, reference compound]	251 ± 55.6	13.98 ± 2.08 min⁻¹	0.0557 µM/min	showed significant activity with Ube1	could be transferred to E2 and E3
